Paper PMC9115314 (Biochemistry and Biophysics Reports, 2022)

target: h2E2 humanized anti-cocaine mAb; test: differential scanning fluorimetry; format: binding, Homo sapiens; conditions: read-out: Avg Kd (nM) ± Std. Dev. (fold increase vs unmodified h2E2 mAb)

SMILES | Kd
CN1[C@H]2CC[C@@H]1[C@@H](C(=O)O)[C@@H](OC(=O)c1ccccc1)C2 [BE, benzoylecgonine] | 177 ± 14 nM
CCOC(=O)[C@H]1[C@@H](OC(=O)c2ccccc2)C[C@@H]2CC[C@H]1N2C [CE, cocaethylene] | 20.7 ± 4.1 nM
COC(=O)[C@H]1[C@@H](OC(=O)c2ccccc2)C[C@@H]2CC[C@H]1N2C [Coc, cocaine] | 53 ± 6.8 nM
